Results published in US9790228B2, “Heterocyclic kinase inhibitors” (Intellikine LLC, priority 2008, dated 2017).
Like-named read-outs stand apart in the source and are kept apart here.

What was measured:
p110δ/p85α = p110δ/p85α (Homo sapiens (Human), UniProt O00329); experiment: PI3K δ inhibition assay (TLC lipid kinase or HTRF); type: biochemical
Experimental: (§1) Class I PI3-Ks can be either purchased (p110α/p85α, p110β/p85α, p110δ/p85α from Upstate, and p110γ from Sigma) or expressed as previously described (Knight et al., 2004). IC50 values are measured using either a standard TLC assay for lipid kinase activity (described below) or a high-throughput membrane capture assay. Kinase reactions are performed by preparing a reaction mixture containing kinase, inhibitor (2% DMSO final concentration), buffer (25 mM HEPES, pH 7.4, 10 mM MgCl2), and freshly sonicated phosphatidylinositol (100 μg/ml). Reactions are initiated by the addition of ATP containing 10 μCi of γ-32P-ATP to a final concentration 10 or 100 μM and allowed to proceed for 5 minutes at room temperature. For TLC analysis, reactions are then terminated by the addition of […] 1N HCl followed by 160 μl CHCl3:MeOH (1:1). The biphasic mixture is vortexed, briefly centrifuged, and the organic phase is transferred to a new tube using a gel loading pipette tip precoated with CHCl3. This extract is spotted on TLC plates and developed for 3-4 hours in a 65:35 solution of n-propanol:1M acetic acid. The TLC plates are then dried, exposed to a phosphorimager screen (Storm, Amersham), and quantitated. For each compound, kinase activity is measured at 10-12 inhibitor concentrations representing two-fold dilutions from the highest concentration tested (typically, 200 μM).
(§2) Other commercial kits or systems for assaying PI3-K activities are available. The commercially available kits or systems can be used to screen for inhibitors and/or agonists of PI3-Ks including but not limited to PI 3-Kinase α, β, δ, and γ. Anr exemplary system is PI3-Kinase (human) HTRF™ Assay from Upstate. […] Briefly, the assay is a time resolved FRET assay that indirectly measures PIP3 product formed by the activity of a PI3-K. The kinase reaction is performed in a microtitre plate (e.g., a 384 well microtitre plate). The total reaction volume is approximately 20 ul per well. In the first step, each well receives 2 ul of test compound in 20% dimethylsulphoxide resulting in a 2% DMSO final concentration. Next, approximately 14.5 ul of a kinase/PIP2 mixture (diluted in 1× reaction buffer) is added per well for a final concentration of 0.25-0.3 ug/ml kinase and 10 uM PIP2. The plate is sealed and incubated for 15 minutes at room temperature. To start the reaction, 3.5 ul of ATP (diluted in 1× reaction buffer) is added per well for a final concentration of 10 uM ATP. The plate is sealed and incubated for 1 hour at room temperature. The reaction is stopped by adding 5 ul of Stop Solution per well and then 5 ul of Detection Mix is added per well. The plate is sealed, incubated for 1 hour at room temperature, and then read on an appropriate plate reader. Data is analyzed and IC50s are generated using GraphPad Prism 5.

Balb/c splenic B cells = experiment: B cell activation and proliferation assay (Alamar Blue); type: cell-based, mouse
Experimental: The ability of one or more subject compounds to inhibit B cell activation and proliferation is determined according to standard procedures known in the art. For example, an in vitro cellular proliferation assay is established that measures the metabolic activity of live cells. The assay is performed in a 96 well microtiter plate using Alamar Blue reduction. Balb/c splenic B cells are purified over a Ficoll-Paque™ PLUS gradient followed by magnetic cell separation using a MACS B cell Isolation Kit (Miletenyi). Cells are plated in 90 ul at 50,000 cells/well in B Cell Media (RPMI+10% FBS+Penn/Strep+50 uM bME+5 mM HEPES). A compound disclosed herein is diluted in B Cell Media and added in a 10 ul volume. Plates are incubated for 30 min at 37 C and 5% CO2 (0.2% DMSO final concentration). A 50 ul B cell stimulation cocktail is then added containing either 10 ug/ml LPS or 5 ug/ml F(ab′)2 Donkey anti-mouse IgM plus 2 ng/ml recombinant mouse IL4 in B Cell Media. Plates are incubated for 72 hours at 37° C. and 5% CO2. A volume of 15 uL of Alamar Blue reagent is added to each well and plates are incubated for 5 hours at 37 C and 5% CO2. Alamar Blue fluoresce is read at 560Ex/590Em, and IC50 or EC50 values are calculated using GraphPad Prism 5.

p110γ = p110γ (Homo sapiens (Human), UniProt P48736); experiment: PI3K γ inhibition assay (TLC lipid kinase or HTRF); type: biochemical
Sequence of p110γ (P48736 whole entry): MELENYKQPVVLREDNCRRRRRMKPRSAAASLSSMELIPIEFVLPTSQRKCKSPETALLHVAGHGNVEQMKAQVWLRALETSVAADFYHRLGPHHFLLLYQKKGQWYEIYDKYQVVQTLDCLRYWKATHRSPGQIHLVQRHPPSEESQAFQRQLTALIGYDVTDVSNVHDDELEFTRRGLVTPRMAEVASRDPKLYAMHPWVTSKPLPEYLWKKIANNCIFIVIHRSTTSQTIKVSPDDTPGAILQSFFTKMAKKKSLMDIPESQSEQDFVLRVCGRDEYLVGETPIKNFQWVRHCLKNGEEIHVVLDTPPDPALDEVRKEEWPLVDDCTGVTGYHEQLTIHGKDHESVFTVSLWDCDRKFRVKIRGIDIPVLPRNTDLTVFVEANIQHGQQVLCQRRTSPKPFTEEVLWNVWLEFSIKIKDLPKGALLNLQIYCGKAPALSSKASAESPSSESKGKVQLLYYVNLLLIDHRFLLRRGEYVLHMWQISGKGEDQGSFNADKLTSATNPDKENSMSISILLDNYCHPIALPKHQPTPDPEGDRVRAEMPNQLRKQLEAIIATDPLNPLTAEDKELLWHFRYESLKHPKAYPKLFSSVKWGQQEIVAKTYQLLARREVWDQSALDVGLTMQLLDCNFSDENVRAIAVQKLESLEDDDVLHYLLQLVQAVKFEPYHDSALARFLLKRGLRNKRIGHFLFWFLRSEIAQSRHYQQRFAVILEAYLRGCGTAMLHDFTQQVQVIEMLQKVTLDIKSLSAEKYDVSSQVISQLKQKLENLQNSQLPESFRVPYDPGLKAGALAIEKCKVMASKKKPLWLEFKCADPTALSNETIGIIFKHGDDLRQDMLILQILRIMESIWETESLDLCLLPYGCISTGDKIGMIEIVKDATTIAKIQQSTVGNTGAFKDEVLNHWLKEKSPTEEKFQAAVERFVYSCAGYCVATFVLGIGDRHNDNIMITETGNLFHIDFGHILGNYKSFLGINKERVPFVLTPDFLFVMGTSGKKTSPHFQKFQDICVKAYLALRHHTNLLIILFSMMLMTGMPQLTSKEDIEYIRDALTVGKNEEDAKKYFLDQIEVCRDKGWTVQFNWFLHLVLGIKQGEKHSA
Experimental: as §1, §2

p110α/p85α = p110α/p85α (Homo sapiens (Human), UniProt P42336); experiment: PI3K α inhibition assay (TLC lipid kinase or HTRF); type: biochemical
Sequence of p110α/p85α (P42336 whole entry): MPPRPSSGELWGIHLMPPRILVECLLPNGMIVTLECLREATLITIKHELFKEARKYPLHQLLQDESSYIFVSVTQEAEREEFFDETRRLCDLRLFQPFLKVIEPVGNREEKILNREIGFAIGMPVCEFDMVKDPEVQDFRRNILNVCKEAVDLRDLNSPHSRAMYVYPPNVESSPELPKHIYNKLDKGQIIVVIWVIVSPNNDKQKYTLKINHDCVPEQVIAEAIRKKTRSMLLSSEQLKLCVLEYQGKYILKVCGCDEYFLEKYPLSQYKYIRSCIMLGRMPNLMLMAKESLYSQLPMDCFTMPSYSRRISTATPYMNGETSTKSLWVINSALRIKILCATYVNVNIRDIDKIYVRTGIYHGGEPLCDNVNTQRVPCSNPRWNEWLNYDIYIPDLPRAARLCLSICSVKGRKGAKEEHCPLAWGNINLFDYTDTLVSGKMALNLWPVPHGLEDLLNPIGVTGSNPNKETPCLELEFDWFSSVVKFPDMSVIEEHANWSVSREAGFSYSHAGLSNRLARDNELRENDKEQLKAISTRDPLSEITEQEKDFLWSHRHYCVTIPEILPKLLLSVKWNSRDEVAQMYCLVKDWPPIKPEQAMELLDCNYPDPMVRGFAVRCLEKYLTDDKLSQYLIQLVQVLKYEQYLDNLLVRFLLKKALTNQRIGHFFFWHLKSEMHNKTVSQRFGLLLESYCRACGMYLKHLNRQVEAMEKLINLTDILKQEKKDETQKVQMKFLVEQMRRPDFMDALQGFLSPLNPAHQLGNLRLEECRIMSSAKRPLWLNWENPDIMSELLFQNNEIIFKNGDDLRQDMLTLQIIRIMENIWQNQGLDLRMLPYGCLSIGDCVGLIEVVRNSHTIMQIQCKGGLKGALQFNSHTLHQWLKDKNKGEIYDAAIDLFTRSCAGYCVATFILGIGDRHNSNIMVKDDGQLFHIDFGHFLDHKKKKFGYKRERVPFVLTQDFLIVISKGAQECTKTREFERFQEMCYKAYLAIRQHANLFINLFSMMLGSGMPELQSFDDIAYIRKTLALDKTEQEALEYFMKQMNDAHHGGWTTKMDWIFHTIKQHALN
Sequence of p110α/p85α (P27986 whole entry partner): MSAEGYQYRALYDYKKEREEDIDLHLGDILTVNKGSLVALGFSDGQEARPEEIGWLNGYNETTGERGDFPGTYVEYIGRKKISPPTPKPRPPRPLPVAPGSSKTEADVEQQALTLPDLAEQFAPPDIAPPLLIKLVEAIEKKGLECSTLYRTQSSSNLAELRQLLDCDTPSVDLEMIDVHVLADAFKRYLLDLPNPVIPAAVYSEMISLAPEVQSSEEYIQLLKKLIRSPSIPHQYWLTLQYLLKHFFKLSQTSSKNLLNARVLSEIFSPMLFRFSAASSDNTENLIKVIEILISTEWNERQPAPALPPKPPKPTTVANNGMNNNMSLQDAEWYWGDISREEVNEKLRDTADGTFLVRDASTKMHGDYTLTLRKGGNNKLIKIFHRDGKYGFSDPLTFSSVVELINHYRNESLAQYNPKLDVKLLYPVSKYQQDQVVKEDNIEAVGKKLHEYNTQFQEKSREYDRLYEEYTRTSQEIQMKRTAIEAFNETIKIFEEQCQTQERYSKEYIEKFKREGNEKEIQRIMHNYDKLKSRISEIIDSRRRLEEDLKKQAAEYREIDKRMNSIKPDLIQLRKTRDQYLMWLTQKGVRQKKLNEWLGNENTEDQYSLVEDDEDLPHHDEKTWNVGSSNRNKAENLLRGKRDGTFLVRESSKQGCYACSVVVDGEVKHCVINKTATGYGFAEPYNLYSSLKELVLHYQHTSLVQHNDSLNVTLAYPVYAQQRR
Experimental: as §1, §2

p110β/p85α = p110β/p85α (Homo sapiens, UniProt P42338); experiment: PI3K β inhibition assay (TLC lipid kinase or HTRF); type: biochemical; settings: read-out: PI3K β IC50
Sequence of p110β/p85α (P42338 whole entry, looked up): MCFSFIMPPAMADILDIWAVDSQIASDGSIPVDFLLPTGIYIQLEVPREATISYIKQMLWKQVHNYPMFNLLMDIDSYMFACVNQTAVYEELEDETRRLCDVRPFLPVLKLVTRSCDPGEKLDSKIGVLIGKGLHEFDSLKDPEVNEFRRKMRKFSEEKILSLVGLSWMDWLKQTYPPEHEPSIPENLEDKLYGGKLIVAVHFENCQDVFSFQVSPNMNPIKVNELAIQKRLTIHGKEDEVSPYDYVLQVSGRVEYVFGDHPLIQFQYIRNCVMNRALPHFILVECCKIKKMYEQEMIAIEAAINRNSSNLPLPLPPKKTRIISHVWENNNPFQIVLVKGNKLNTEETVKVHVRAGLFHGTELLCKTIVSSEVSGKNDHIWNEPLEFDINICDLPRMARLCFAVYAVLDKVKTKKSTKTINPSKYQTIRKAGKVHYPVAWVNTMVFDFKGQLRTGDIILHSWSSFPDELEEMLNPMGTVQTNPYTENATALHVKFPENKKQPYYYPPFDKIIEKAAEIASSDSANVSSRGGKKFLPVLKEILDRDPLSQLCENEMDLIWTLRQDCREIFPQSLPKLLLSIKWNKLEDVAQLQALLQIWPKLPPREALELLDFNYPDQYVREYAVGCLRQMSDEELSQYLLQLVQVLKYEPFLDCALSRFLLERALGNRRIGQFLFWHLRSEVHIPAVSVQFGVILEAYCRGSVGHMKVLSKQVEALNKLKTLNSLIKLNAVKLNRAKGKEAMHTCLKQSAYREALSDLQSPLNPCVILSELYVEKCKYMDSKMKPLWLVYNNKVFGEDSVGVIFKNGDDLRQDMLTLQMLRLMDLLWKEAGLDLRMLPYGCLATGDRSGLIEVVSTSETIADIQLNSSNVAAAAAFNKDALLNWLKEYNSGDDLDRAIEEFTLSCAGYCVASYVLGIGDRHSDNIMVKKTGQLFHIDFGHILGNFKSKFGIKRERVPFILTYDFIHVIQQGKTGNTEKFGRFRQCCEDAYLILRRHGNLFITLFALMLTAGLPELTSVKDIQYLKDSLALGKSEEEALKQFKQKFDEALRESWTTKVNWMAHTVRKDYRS
Experimental: as §1, §2

Sequence of p110δ/p85α (O00329 whole entry): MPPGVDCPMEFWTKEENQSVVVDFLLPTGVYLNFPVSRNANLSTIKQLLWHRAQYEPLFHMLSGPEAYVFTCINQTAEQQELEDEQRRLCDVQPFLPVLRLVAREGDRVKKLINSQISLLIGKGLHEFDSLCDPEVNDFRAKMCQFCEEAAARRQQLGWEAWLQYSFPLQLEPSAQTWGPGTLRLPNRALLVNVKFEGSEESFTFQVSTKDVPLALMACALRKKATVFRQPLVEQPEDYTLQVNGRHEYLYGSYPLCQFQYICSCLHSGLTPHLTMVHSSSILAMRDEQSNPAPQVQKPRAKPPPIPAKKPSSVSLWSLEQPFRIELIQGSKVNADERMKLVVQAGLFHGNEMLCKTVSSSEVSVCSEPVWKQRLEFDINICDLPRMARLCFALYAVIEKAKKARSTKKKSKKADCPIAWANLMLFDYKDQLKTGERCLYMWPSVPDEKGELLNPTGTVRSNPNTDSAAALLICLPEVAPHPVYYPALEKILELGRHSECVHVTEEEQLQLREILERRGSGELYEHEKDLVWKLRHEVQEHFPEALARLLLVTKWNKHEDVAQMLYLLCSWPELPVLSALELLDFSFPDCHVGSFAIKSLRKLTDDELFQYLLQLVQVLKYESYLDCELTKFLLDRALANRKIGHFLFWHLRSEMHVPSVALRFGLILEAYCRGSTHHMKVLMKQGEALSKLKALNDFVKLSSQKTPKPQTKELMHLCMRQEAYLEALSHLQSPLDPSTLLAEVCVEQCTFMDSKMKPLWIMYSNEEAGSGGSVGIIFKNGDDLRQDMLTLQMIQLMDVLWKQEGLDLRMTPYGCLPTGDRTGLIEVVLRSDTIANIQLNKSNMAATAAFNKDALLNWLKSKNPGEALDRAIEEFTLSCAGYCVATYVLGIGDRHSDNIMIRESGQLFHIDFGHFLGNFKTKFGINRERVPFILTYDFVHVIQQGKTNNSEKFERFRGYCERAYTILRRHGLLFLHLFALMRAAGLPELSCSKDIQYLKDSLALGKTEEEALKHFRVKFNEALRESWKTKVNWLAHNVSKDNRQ
Sequence of p110δ/p85α (P27986 whole entry partner): as the sequence (P27986 whole entry partner) above

SMILES	IC50 (p110δ/p85α)	EC50 (Balb/c splenic B cells; Mus musculus, B-cell)	IC50 (p110γ)	IC50 (p110α/p85α)	IC50 (p110β/p85α)	EC50 (Balb/c splenic B cells)
Nc1ncnc2c1c(-c1cc(O)cc(F)c1)nn2Cc1cc2ccccc2nc1NC1CCC1 [Compound 42]	< 100 nM	< 100 nM	–	–	–	–
C[C@@H](O)C#Cc1nn(Cc2cc3ccccc3nc2N2CCCC2)c2ncnc(N)c12 [Compound 48]	100 to 1000 nM	100 to 1000 nM	> 1000 nM	–	–	–
Nc1ncnc2c1c(-c1cccc(O)c1)nn2Cc1cc2ccccc2nc1-c1ccccc1C(F)(F)F [Compound 46]	< 100 nM	100 to 1000 nM	100 to 1000 nM	–	–	–
CC(c1cc2ccccc2nc1N1CCCC1)n1nc(-c2cccc(O)c2)c2c(N)ncnc21 (centres unmarked) [Compound 32]	< 100 nM	< 100 nM	100 to 1000 nM	–	–	–
CC(c1cc2ccccc2nc1N1CCCC1)n1nc(C#C[C@@H](C)O)c2c(N)ncnc21 (some centres unmarked) [Compound 31]	< 100 nM	100 to 1000 nM	> 1000 nM	–	–	–
CC(=O)Nc1nc2ccc(-c3nn(Cc4cc5ccccc5nc4N4CCOCC4)c4ncnc(N)c34)cc2s1 [Compound 128]	< 100 nM	< 100 nM	< 100 nM	< 100 nM	–	–
Nc1ncnc2c1c(-c1cc(O)cc(F)c1)nn2Cc1cc2ccccc2nc1-c1ccccc1C(F)(F)F [Compound 45]	< 100 nM	< 100 nM	100 to 1000 nM	–	–	–
Cc1cccc2cc(Cn3nc(I)c4c(N)ncnc43)c(N3CCN(C)CC3)nc12 [Compound 11]	< 100 nM	< 100 nM	–	–	–	–
CC(c1cc2ccccc2nc1-c1ccccc1)n1cnc2c(N)ncnc21 (centres unmarked) [Compound 60]	> 1000 nM	> 1000 nM	> 1000 nM	–	–	–
CC(=O)Nc1nc2ccc(-c3nn(Cc4cc5ccccc5nc4N(C)C(C)C)c4ncnc(N)c34)cc2s1 [Compound 151]	< 100 nM	< 100 nM	< 100 nM	–	100 to 1000 nM	–
COc1ccccc1-c1nc2ccccc2cc1Cn1nc(-c2cc(O)cc(F)c2)c2c(N)ncnc21 [Compound 15]	< 100 nM	< 100 nM	–	–	–	–
CN1CCN(c2ncccc2Cn2nc(-c3cc(O)cc(F)c3)c3c(N)ncnc32)CC1 [Compound 200]	< 100 nM	100 to 1000 nM	> 1000 nM	> 1000 nM	–	–
Nc1ncnc2c1c(-c1ccc3cc[nH]c3c1)nn2Cc1cc2ccccc2nc1N1CCCC1 [Compound 147]	< 100 nM	100 to 1000 nM	< 100 nM	100 to 1000 nM	–	–
CC(C)c1ccccc1-c1nc2ccccc2cc1Cn1nc(C#C[C@@H](C)O)c2c(N)ncnc21 [Compound 16]	< 100 nM	100 to 1000 nM	–	–	–	–
Nc1ncnc2c1c(-c1cc(O)cc(F)c1)nn2Cc1cc2ccccc2nc1N1CCCCC1 [Compound 20]	< 100 nM	< 100 nM	–	–	–	–
CC(C)Nc1nc2ccccc2cc1Cn1nc(-c2cc(O)cc(F)c2)c2c(N)ncnc21 [Compound 25]	100 to 1000 nM	> 1000 nM	> 1000 nM	–	–	–

SMILES	IC50 (p110δ/p85α)	EC50 (Balb/c splenic B cells; Mus musculus, B-cell)	IC50 (p110γ)	IC50 (p110α/p85α)	IC50 (p110β/p85α)	EC50 (Balb/c splenic B cells)
Cc1cccc2cc(Cn3nc(-c4cccc(O)c4)c4c(N)ncnc43)c(N3CCN(C)CC3)nc12 [Compound 13]	< 100 nM	< 100 nM	–	–	–	–
CC(c1cc2ccccc2nc1N1CCCC1)n1nc(-c2cc(O)cc(F)c2)c2c(N)ncnc21 (centres unmarked) [Compound 30]	< 100 nM	< 100 nM	< 100 nM	–	–	–
NCc1ccc(F)cc1-c1nc2ccccc2cc1Cn1nc(-c2cc(O)cc(F)c2)c2c(N)ncnc21 [Compound 26]	< 100 nM	< 100 nM	> 1000 nM	–	–	–
Nc1ncnc2c1c(-c1cnc3[nH]ccc3c1)nn2Cc1cc2ccccc2nc1N1CCCC1 [Compound 23]	< 100 nM	< 100 nM	–	–	–	–
C[C@@H](O)C#Cc1nn(Cc2cc3ccccc3nc2-c2ccccc2C(F)(F)F)c2ncnc(N)c12 [Compound 49]	100 to 1000 nM	100 to 1000 nM	> 1000 nM	–	–	–
Cc1ccccc1-c1nc2ccccc2n1CCn1nc(-c2cc(O)cc(F)c2)c2c(N)ncnc21 [Compound 127]	< 100 nM	100 to 1000 nM	> 1000 nM	–	–	–
Cc1ccccc1-c1nc2ccccc2cc1Cn1nc(-c2ccc3nc(N)[nH]c3c2)c2c(N)ncnc21 [Compound 182]	< 100 nM	100 to 1000 nM	< 100 nM	> 1000 nM	–	–
CC(C)N(C)c1nc2ccccc2cc1Cn1nc(-c2ccc3nc(N)sc3c2)c2c(N)ncnc21 [Compound 154]	< 100 nM	< 100 nM	100 to 1000 nM	< 100 nM	–	–
Cc1cccc2cc(Cn3nc(-c4cc(O)cc(F)c4)c4c(N)ncnc43)c(N3CCN(C)CC3)nc12 [Compound 12]	< 100 nM	< 100 nM	–	–	–	–
Nc1nc2ccc(-c3nn(Cc4cc5ccccc5nc4N4CCCC4)c4ncnc(N)c34)cc2s1 [Compound 196]	< 100 nM	–	< 100 nM	100 to 1000 nM	–	100 to 1000 nM
Nc1ncnc2c1c(-c1cccc(O)c1)nn2Cc1cc2ccccc2nc1N1CCCC1 [Compound 47]	< 100 nM	< 100 nM	< 100 nM	–	–	–
Nc1nc2cc(-c3nn(Cc4cc5ccccc5nc4-c4ccccc4C(F)(F)F)c4ncnc(N)c34)ccc2[nH]1 [Compound 155]	< 100 nM	100 to 1000 nM	> 1000 nM	> 1000 nM	–	–
Nc1ncnc2c1c(-c1cc(O)cc(F)c1)nn2Cc1cnc2ccccc2c1 [Compound 61]	< 100 nM	< 100 nM	< 100 nM	–	–	–
Nc1ncnc2c1c(-c1cc(O)cc(F)c1)nn2Cc1cc2ccccc2nc1-c1ccccc1F [Compound 19]	< 100 nM	< 100 nM	–	–	–	–
Nc1ncnc2c1c(-c1cc(O)cc(F)c1)nn2Cc1cc2ccccc2nc1N1CCN(CCO)CC1 [Compound 34]	< 100 nM	< 100 nM	100 to 1000 nM	–	–	–
